Experimental data: patent publication US20030190365A1, “Methods for wet granulating azithromycin” (Pfizer Inc., priority 2001, published 2003)

Legend:
[1] = Equilibrium solubility of azithromycin forms in granulating liquids (HPLC-UV)
Protocol: Equilibrium solubility of several different forms of azithromycin, in typical liquids used in the wet granulation process, were evaluated as follows.
Excess azithromycin was added as a solid into each respective test liquid and mixed by rotation using a Labquake Rotating Mixer® at 7 revolutions per minute (RPM). Duplicate samples were run for each condition. Excess drug material was added to achieve saturation. Once saturation was achieved, the samples were rotated for 48 hours with sampling intervals at 24 and 48 hours. Azithromycin form A was also set up for a 7-day equilibrium solubility analysis to assure equilibrium beyond 48 hours. At each sampling interval, approximately half (1 mL) the sample was transferred into a polyethylene microcentrifuge tube and centrifuged at 15,000 RPM for 20 minutes using the Eppendorf Centrifuge Model # 5403. Following centrifugation, the liquid layer was pipetted and diluted with 0.04 M potassium phosphate dibasic (pH=8): acetonitrile (4:6). Dilutions were made accordingly until the peak area fell into the linear curve range of the standards (0.15 to 1.5 mgA/mL). Samples were run by HPLC (HP-1100 system, Agilent Technologies, Wilmington, Del.) with UV detection at 210 nm. The sample data was calculated by linear regression against the standard curve based on azithromycin form A.

[2] = As-is and tapped density of bulk drug and dried granulations (Van Kel tap density tester); type: physicochemical
Protocol: Form F bulk drug contained soft lumps and was sieved through an 18 mesh (1.0 mm) screen before use. A small-scale granulation process, as described in Example 1, was used for samples of 5 g of bulk drug. The liquid was pipetted in 0.1 to 1.0 mL increments until a granulation was formed, based on visual observations, followed by wet mixing for 3-5 minutes. All three runs formed wet granulations, but the run with water was much less granular than the non-aqueous runs. All of the samples were dried overnight at 40° C. for 16 hours. […] The two nonaqueous liquid runs appeared to be only ˜50% granules, and the water run was only slightly granular.
Samples of the dried granules were then hand sieved through an 18 mesh screen and the density was determined, as shown above in Table 2C. SEM's were taken of dried samples both before and after sieving was done to aid in the evaluation.
A small-scale process, as described in Example 1, was used to granulate the formulations. The ingredients (except for the lubricant), to make a 10 g lot for each run, were pre-blended for 5 minutes on a Turbula Shaker-Mixer (Willy A. Bachofen AG Maschinenfabrik, Basel, Switzerland). The blend was granulated per Example 1. The liquid was pipetted in 0.1 to 1.0 mL increments and mixed for 2.5-6 minutes until a granulation was formed. All of the samples were dried overnight at 40° C. for 16 hours. The amount of densification varied depending on the excipients used in the formulation. […] Tablets were not made from these four granulation runs because of the poor quality.
A small-scale process, as described in Example 1, was used to granulate the formulations into 10 g lots. The liquid was pipetted in 0.1 to 1.0 mL increments and mixed for 2-5 minutes until a granulation was formed. All of the samples were dried overnight at 40° C. for 16 hours in a forced hot air oven and then hand sieved through a 18 mesh (1.0 mm) screen.
A small-scale process, as described in Example 1, was used to granulate the formulations. The granulating liquid was pipetted in 0.1 to 1.0 mL increments and mixed with the 9.3 g of the dry blend for 3-6 minutes until a granulation was formed. The granulating amount, of 30, 27 and 29%, was used for the PVP granulating liquid in ethanol, water and 50:50 ethanol:water, respectively. The amount of liquid used was 2.5-3 mL, therefore the amount of solid (PVP) added in solution based on the 10 g final batch size was from about 0.25 to 0.3%. All of the samples were dried overnight at 40° C. for 16 hours and then hand sieved through a 16 mesh (1.2 mm) screen.
A small-scale process, as described in Example 1, was used to granulate the formulations to make 10 g lots. Each formulation was pre-blended for 5 minutes on a Turbula Shaker-Mixer (Willy A. Bachofen AG Maschinenfabrik, Basel, Switzerland) for 5 minutes. The blend was then granulated as described in Example 1. The liquid was pipetted in 0.1 to 1.0 mL increments and mixed for 4-8 minutes until a granulation was formed. All of the samples were dried overnight at 40° C. for 16 hours and then hand sieved through a 16 mesh (1.2mm) screen. The densities of the granulations were then compared to the bulk drug and to each other. The amount of densification varied depending on the components used in the formulation.

[3] = 24 hours, EtOH 33% in water v/v
[4] = 24 hours, EtOH 67% in water v/v
[5] = 48 hours, EtOH 33% in water v/v
[6] = 48 hours, EtOH 67% in water v/v

SMILES | solubility [1, 3] [mgA/mL] | solubility [1, 4] [mgA/mL] | solubility ([1]; 24 hours, EtOH 100% neat) [mgA/mL] | solubility ([1]; 24 hours, IPA 33% in water v/v) [mgA/mL] | solubility ([1]; 24 hours, IPA 67% in water v/v) [mgA/mL] | solubility ([1]; 24 hours, IPA 100% neat) [mgA/mL] | solubility ([1]; 24 hours, water) [mgA/mL] | solubility [1, 5] [mgA/mL] | solubility [1, 6] [mgA/mL] | solubility ([1]; 48 hours, EtOH 100% neat) [mgA/mL] | solubility ([1]; 48 hours, IPA 33% in water v/v) [mgA/mL] | solubility ([1]; 48 hours, IPA 67% in water v/v) [mgA/mL] | solubility ([1]; 48 hours, IPA 100% neat) [mgA/mL] | solubility ([1]; 48 hours, water) [mgA/mL] | As Is Density ([2]; Example 3) [g/cc] | Tapped Density ([2]; Example 3) [g/cc] | other results
CC[C@H]1OC(=O)[C@H](C)[C@@H](O[C@H]2C[C@@](C)(OC)[C@@H](O)[C@H](C)O2)[C@H](C)[C@@H](O[C@@H]2O[C@H](C)C[C@H](N(C)C)[C@H]2O)[C@](C)(O)C[C@@H](C)CN(C)[C@H](C)[C@@H](O)[C@]1(C)O [form A, 9-deoxo-9a-aza-9a-methyl-9a-homoerythromycin A, reference compound] | 1.30 | 27.48 | 219.74 | 5.50 | 68.71 | 291.91 | 0.10 | 1.23 | 27.25 | 211.59 | 5.25 | 67.70 | 280.91 | 0.14 | – | – | solubility ([1]; 7 days, EtOH 33% in water v/v): 1.27 mgA/mL; solubility ([1]; 7 days, EtOH 67% in water v/v): 27.02 mgA/mL; solubility ([1]; 7 days, EtOH 100% neat): 214.76 mgA/mL; solubility ([1]; 7 days, IPA 33% in water v/v): 5.28 mgA/mL; solubility ([1]; 7 days, IPA 67% in water v/v): 66.63 mgA/mL; solubility ([1]; 7 days, IPA 100% neat): 286.45 mgA/mL; solubility ([1]; 7 days, water): 0.11 mgA/mL; solubility in pure water compared to all other forms ([1]; relative to the other forms): approximately one-half; solubility in the isopropanol solutions compared to all other forms ([1]; relative to the other forms): lower solubility
CCC1OC(=O)C(C)C(O[C@H]2C[C@@](C)(OC)[C@@H](O)C(C)O2)C(C)[C@@H](OC2OC(C)CC(N(C)C)[C@H]2O)[C@@](C)(O)C[C@@H](C)CN(C)[C@H](C)[C@@H](O)[C@]1(C)O (stereo partly drawn) [form F, azithromycin monohydrate hemi-ethanol solvate] | 0.98 | 27.86 | 228.34 | 10.04 | 94.09 | 367.02 | 0.19 | 1.06 | 27.56 | 229.87 | 9.41 | 79.90 | 362.64 | 0.21 | 0.290 | 0.439 | As is Density ([2]; Example 2, form F, Table 2A): 0.290 g/cc; Tapped Density ([2]; Example 2, form F, Table 2A, 2000 taps): 0.439 g/cc; As is Density ([2]; Example 2, form F, Table 2C): 0.290 g/cc; Tapped Density ([2]; Example 2, form F, Table 2C): 0.439 g/cc; As Is Density ([2]; Example 6, form F): 0.290 g/cc; Tapped Density ([2]; Example 6, form F): 0.439 g/cc; As Is Density ([2]; Example 7, form F): 0.290 g/cc; Tapped Density ([2]; Example 7, form F): 0.439 g/cc
CC[C@H]1OC(=O)[C@H](C)[C@@H](O[C@H]2C[C@@](C)(OC)[C@@H](O)[C@H](C)O2)[C@H](C)[C@@H](O[C@@H]2O[C@H](C)C[C@H](N(C)C)[C@H]2O)[C@](C)(O)C[C@@H](C)CN(C)[C@H](C)[C@@H](O)[C@]1(C)O [form G, azithromycin sesquihydrate] | – | – | – | – | – | – | – | – | – | – | – | – | – | – | – | – | As Is Density ([2]; Example 3, sesquihydrate): 0.290 g/cc; Tapped Density ([2]; Example 3, sesquihydrate): 0.450 g/cc
CCC1OC(=O)C(C)C(O[C@H]2C[C@@](C)(OC)[C@@H](O)C(C)O2)C(C)[C@@H](OC2OC(C)CC(N(C)C)[C@H]2O)[C@@](C)(O)C[C@@H](C)CN(C)[C@H](C)[C@@H](O)[C@]1(C)O (stereo partly drawn) [form J, azithromycin monohydrate hemi-n-propanol solvate] | 0.95 | 27.15 | 224.77 | 9.81 | 113.05 | 315.94 | 0.18 | 0.99 | 26.30 | 208.99 | 9.40 | 106.51 | 295.88 | 0.22 | 0.377 | 0.649 | –
CCC1OC(=O)C(C)C(O[C@H]2C[C@@](C)(OC)[C@@H](O)C(C)O2)C(C)[C@@H](OC2OC(C)CC(N(C)C)[C@H]2O)[C@@](C)(O)C[C@@H](C)CN(C)[C@H](C)[C@@H](O)[C@]1(C)O (stereo partly drawn) [form M, azithromycin monohydrate hemi-isopropanol solvate] | 0.97 | 25.86 | 211.38 | 8.56 | 110.67 | 333.39 | 0.22 | 1.10 | 27.00 | 222.38 | 8.92 | 82.95 | 353.19 | 0.21 | 0.391 | 0.514 | solubility ([1]; 72 hours, IPA 67% in water v/v): 71.35 mgA/mL; solubility ([1]; 72 hours, IPA 100% neat): 322.55 mgA/mL
CC[C@H]1OC(=O)[C@H](C)[C@@H](O[C@H]2C[C@@](C)(OC)[C@@H](O)[C@H](C)O2)[C@H](C)[C@@H](O[C@@H]2O[C@H](C)C[C@H](N(C)C)[C@H]2O)[C@](C)(O)C[C@@H](C)CN(C)[C@H](C)[C@@H](O)[C@]1(C)O [form N, azithromycin] | 1.06 | 27.33 | 228.14 | 9.23 | 113.08 | 334.22 | 0.20 | 1.11 | 27.20 | 225.78 | 7.36 | 106.48 | 322.91 | 0.24 | 0.450 | 0.600 | –
